{"source": "patent US20230099696A1", "about": "“NANO-COMPOSITE MICROPARTICLES OF POLYMYXIN” (Purdue Research Foundation, priority 2020, published 2023)", "key": {"[1]": {"test": "Crystallinity by powder X-ray diffraction (PXRD)", "format": "physicochemical", "conditions": "state of Iva, FIG. 1B, 3A, 3B", "procedure": "Crystalline state of the optimal Iva-BSA-NPs and the physical mixture (PM) of BSA and Iva were characterized by the powder X-ray diffraction (PXRD, SmartLabTM diffractometer, Rigaku Americas, Austin, USA) with Cu-Kα radiation source, operating at 40 kV and 44 mA . The scanning 2θ range was set as 5 to 60° with a scanning rate of 5°/min ([…] et al., 2018a). Crystalline state of co-delivery microparticles and the PM of BSA, Iva, Col and L-leucine were characterized by PXRD with the similar method as to detect the optimal nanoparticles."}, "[2]": {"tested_on": "Staphylococcus aureus (SA)", "conditions": "against SA; cited from earlier work"}, "[3]": {"tested_on": "Pseudomonas aeruginosa (PA)", "conditions": "when combined with polymyxin B; cited from earlier work"}}, "data": [{"smiles": "CC(C)(C)c1cc(C(C)(C)C)c(NC(=O)c2c[nH]c3ccccc3c2=O)cc1O", "note": "[Iva, Ivacaftor]", "values": [{"measurement": "crystalline state (PXRD)", "setting": "[1]", "result": "crystalline"}, {"measurement": "MIC", "setting": "[2]", "result": "8~32 mg/L"}, {"measurement": "antimicrobial activity against PA", "setting": "[3]", "result": "significant antimicrobial activity"}]}]}
